According to US20120264685A1 (priority 2009, published 2012):
Where a SMILES comes first, the peptide text is derived from it. [ ]: non-standard residue; d: D form. ξ: configuration not given here. ξαMeBip(2'-Et,4'-OMe) = CCc1cc(OC)ccc1-c1ccc(CC(C)(N)C(=O)O)cc1; ξBip(2'-Et-4'-OMe) = CCc1cc(OC)ccc1-c1ccc(CC(N)C(=O)O)cc1; ξαMePhe(2,6-F2) = CC(N)(Cc1c(F)cccc1F)C(=O)O; ξαMe(hhPhe) = CC(N)(CCCc1ccccc1)C(=O)O; ξαMePhe(2-F) = CC(N)(Cc1ccccc1F)C(=O)O; ξαMeD = CC(N)(CC(=O)O)C(=O)O; ξαMeP = CC1(C(=O)O)CCCN1; ξαMeS = CC(N)(CO)C(=O)O

How the values were obtained:
[1] = Stability in simulated intestinal fluid; type: in vitro ADME; conditions: 2 μM, 37° C.; for % degradation in 24 h when incubated with simulated intestinal fluid: pH 7.5, 24 h; for half-life: simulated gi fluid, pH 7.5, read-out: half-life (t1/2) in simulated intestinal fluid
Method: (§1) Reactions were terminated by the addition of TFA/H2O ([…], 10% (v/v)). […] The column was equilibrated with TFA/H20, at a flow rate of 1 mL/min. […] The absorbance was monitored at 206 nm using UV detector and peaks were collected manually prior to ESI-MS analysis.

[2] = Stability in simulated gastric fluid; type: in vitro ADME; conditions: 2 μM, 37° C.; for % degradation in 24 h when incubated with simulated gastric fluid: pH 1.5, 24 h; for half-life: simulated gi fluid, pH 1.5, read-out: half-life (t1/2) in simulated gastric fluid
Method: as §1

[3] = Stability in human plasma; type: in vitro ADME; conditions: 2 μM, 37° C.; for half-life: human, plasma, read-out: half-life (t1/2) in human plasma
Method: (§2) Different peptidomimetics (final concentration 2 μM) were incubated with either DPP IV (1:25 mU) or pooled human plasma (7.5 μL) or simulated gastric fluid (pH 1.5; composition HCl, NaCl and Pepsin) or simulated intestinal fluid (pH 7.5) or human liver microsomes, for 0, 2, 4, 6, 12 and 24 h (37° C.; 50 mM triethanolamine-HCl buffer; pH 7.8). […] Reactions were terminated by the addition of TFA/H2O ([…], 10% (v/v)). The reaction products were then applied to a Vydac C18 analytical column (4.6×250-mm) and the major degradation fragment separated from intact peptidomimetic. The column was equilibrated with TFA/H20, at a flow rate of 1 mL/min. Using 0.1% (v/v) TFA in 70% acetonitrile/H2O, the concentration of acetonitrile in the eluting solvent was raised from 0% to 28% over 10 min and from 28% to 42% over 30 min. The absorbance was monitored at 206 nm using UV detector and peaks were collected manually prior to ESI-MS analysis. Area under the curve was measured for test peptidomimetics and their metabolites and percentage degradation were calculated at each time point over a period of 24 h.

[4] = system: RIN5F (Rat Insulinoma) cells; experiment: In vitro glucose-dependent insulin secretion (RIN5F cell assay); type: cell-based; conditions: 16.7-mM glucose load, n = 3, mean ± S.D.
How it was run: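 Rat RIN5F cells were preincubated 40 min in Krebs-Ringer buffer with 1.1 mM glucose and 0.5% BSA, pH 7.4, then exposed to test peptidomimetics for 30 min at 37 °C with 16.7 mM or 0 mM glucose. Supernatant insulin was measured by rat insulin ELISA and normalised to total protein (BCA), as pg/μg.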

DPP IV enzyme = DPP IV enzyme (Homo sapiens, UniProt P27487); experiment: Stability against DPP IV enzyme; type: in vitro ADME; conditions: 2 μM, 37° C.; for half-life: read-out: half-life (t1/2) with DPP-IV enzyme
Method: as §2

[5] = Stability in liver microsomes; type: in vitro ADME, human; conditions: 2 μM, 37° C.; for half-life: human, microsomes, read-out: half-life (t1/2) in liver microsomes
Method: as §1

Sequence of DPP IV enzyme (P27487 whole entry, species assumed): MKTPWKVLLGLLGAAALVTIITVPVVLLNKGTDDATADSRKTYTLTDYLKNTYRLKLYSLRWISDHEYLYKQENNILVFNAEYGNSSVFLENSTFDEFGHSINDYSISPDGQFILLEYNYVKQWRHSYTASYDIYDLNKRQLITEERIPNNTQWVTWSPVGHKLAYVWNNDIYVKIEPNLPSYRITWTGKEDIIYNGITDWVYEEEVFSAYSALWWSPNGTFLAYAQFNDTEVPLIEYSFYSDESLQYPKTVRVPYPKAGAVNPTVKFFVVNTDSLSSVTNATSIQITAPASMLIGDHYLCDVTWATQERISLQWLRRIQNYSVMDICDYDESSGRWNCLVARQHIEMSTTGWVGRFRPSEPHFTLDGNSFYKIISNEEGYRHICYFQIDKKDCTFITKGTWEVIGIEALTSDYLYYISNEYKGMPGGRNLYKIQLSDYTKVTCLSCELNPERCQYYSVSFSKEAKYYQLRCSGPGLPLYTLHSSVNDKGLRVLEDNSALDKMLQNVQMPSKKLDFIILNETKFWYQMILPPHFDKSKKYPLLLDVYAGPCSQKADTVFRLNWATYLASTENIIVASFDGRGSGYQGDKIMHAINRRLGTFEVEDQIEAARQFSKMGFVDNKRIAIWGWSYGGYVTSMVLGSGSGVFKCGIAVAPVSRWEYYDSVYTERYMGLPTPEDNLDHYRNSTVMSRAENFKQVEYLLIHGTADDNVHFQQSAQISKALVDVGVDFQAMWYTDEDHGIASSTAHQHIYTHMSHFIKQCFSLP

Structure (SMILES) | % degradation in 24 h when incubated with simulated intestinal fluid [1] | half-life [1] | % degradation in 24 h when incubated with simulated gastric fluid [2] | half-life [2] | % degradation in 24 h when incubated with human plasma [3] | half-life [3] | Insulin secretion ([4]; 0.1 nM test compd.) | Insulin secretion ([4]; 1 nM test compd.) | Insulin secretion ([4]; 10 nM test compd.) | % degradation in 24 h when incubated with DPP-IV enzyme (DPP IV enzyme) | half-life (DPP IV enzyme) | half-life (t1/2) in liver microsomes [5] | % degradation in 24 h when incubated with liver microsomes [5] | half-life (t1/2) in human plasma [3] | half-life [5]
CCc1cc(OC)ccc1-c1ccc(CC(NC(=O)C(C)(CC(=O)O)NC(=O)C(C)(CO)NC(=O)[C@@H](NC(=O)[C@H](Cc2ccccc2)NC(=O)[C@@H](NC(=O)CNC(=O)[C@H](CCC(N)=O)NC(=O)[C@H](C)NC(=O)[C@H](Cc2c[nH]cn2)NC(=O)[C@@H](N)C(C)C)[C@@H](C)O)[C@@H](C)O)C(=O)NC(C)(CCCc2ccccc2)C(N)=O)cc1 (stereo partly shown) [compound 108] (H-VHAQGTFT[ξαMeS][ξαMeD][ξBip(2'-Et-4'-OMe)][ξαMe(hhPhe)]-NH2) | 00% | > 24 h | 00% | > 24 h | 00% | > 24 h | 11.9 ± 0.17 pg/µg/h | 14.2 ± 0.13 pg/µg/h | 27.6 ± 0.16 pg/µg/h | 00% | > 24 h | (5) h | 33% | – | –
CCc1cc(OC)ccc1-c1ccc(CC(NC(=O)C(C)(CC(=O)O)NC(=O)C(C)(CO)NC(=O)[C@@H](NC(=O)[C@H](Cc2ccccc2)NC(=O)[C@@H](NC(=O)CNC(=O)[C@H](CCC(=O)O)NC(=O)[C@H](C)NC(=O)[C@H](Cc2c[nH]cn2)NC(=O)[C@@H](N)C(C)C)[C@@H](C)O)[C@@H](C)O)C(=O)NC(C)(CCCc2ccccc2)C(N)=O)cc1 (stereo partly shown) [compound 112] (H-VHAEGTFT[ξαMeS][ξαMeD][ξBip(2'-Et-4'-OMe)][ξαMe(hhPhe)]-NH2) | 100% | 0.5 h | 100% | 0.5 h | 71% | – | 12.3 ± 0.33 pg/µg/h | 14.8 ± 0.16 pg/µg/h | 28.1 ± 0.22 pg/µg/h | 70% | – | – | 100% | (9) h | 0.5 h
CCc1cc(OC)ccc1-c1ccc(CC(C)(NC(=O)[C@H](CC(=O)O)NC(=O)[C@H](CO)NC(=O)[C@@H](NC(=O)[C@H](Cc2ccccc2)NC(=O)[C@@H](NC(=O)CNC(=O)[C@H](CCC(=O)O)NC(=O)C2(C)CCCN2C(=O)[C@H](Cc2c[nH]cn2)NC(=O)[C@@H](N)C(C)C)[C@@H](C)O)[C@@H](C)O)C(=O)NC(C)(CCCc2ccccc2)C(N)=O)cc1 (stereo partly shown) [compound 140] (H-VH[ξαMeP]EGTFTSD[ξαMeBip(2'-Et,4'-OMe)][ξαMe(hhPhe)]-NH2) | 100% | 0.5 h | 100% | 0.5 h | 70% | – | 16.6 ± 0.41 pg/µg/h | 22.9 ± 0.32 pg/µg/h | 36.7 ± 0.11 pg/µg/h | 86% | – | – | 100% | (9) h | 0.5 h
CCc1cc(OC)ccc1-c1ccc(CC(C)(NC(=O)[C@H](CC(=O)O)NC(=O)C(C)(CO)NC(=O)[C@@H](NC(=O)C(C)(Cc2ccccc2F)NC(=O)[C@@H](NC(=O)CNC(=O)[C@H](CCC(N)=O)NC(=O)[C@H](CO)NC(=O)[C@H](Cc2c[nH]cn2)NC(=O)[C@@H](N)C(C)C)[C@@H](C)O)[C@@H](C)O)C(=O)NC(C)(CCCc2ccccc2)C(N)=O)cc1 (stereo partly shown) [compound 165] (H-VHSQGT[ξαMePhe(2-F)]T[ξαMeS]D[ξαMeBip(2'-Et,4'-OMe)][ξαMe(hhPhe)]-NH2) | 100% | 0.5 h | 100% | 0.5 h | 70% | – | 12.1 ± 0.42 pg/µg/h | 14.6 ± 0.41 pg/µg/h | 27.8 ± 0.46 pg/µg/h | 72% | – | – | 100% | (9) h | 0.5 h
CCc1cc(OC)ccc1-c1ccc(CC(C)(NC(=O)[C@H](CC(=O)O)NC(=O)C(C)(CO)NC(=O)[C@@H](NC(=O)C(C)(Cc2ccccc2F)NC(=O)[C@@H](NC(=O)CNC(=O)[C@H](CCC(=O)O)NC(=O)[C@H](C)NC(=O)[C@H](Cc2c[nH]cn2)NC(=O)[C@@H](N)C(C)C)[C@@H](C)O)[C@@H](C)O)C(=O)NC(C)(CCCc2ccccc2)C(N)=O)cc1 (stereo partly shown) [compound 170] (H-VHAEGT[ξαMePhe(2-F)]T[ξαMeS]D[ξαMeBip(2'-Et,4'-OMe)][ξαMe(hhPhe)]-NH2) | 00% | > 24 h | 52% | 4 h | 00% | > 24 h | 12.3 ± 0.33 pg/µg/h | 14.8 ± 0.16 pg/µg/h | 28.1 ± 0.22 pg/µg/h | 00% | > 24 h | – | 81% | – | 2 h
CCc1cc(OC)ccc1-c1ccc(CC(C)(NC(=O)[C@H](CC(=O)O)NC(=O)C(C)(CO)NC(=O)[C@@H](NC(=O)C(C)(Cc2c(F)cccc2F)NC(=O)[C@@H](NC(=O)CNC(=O)[C@H](CCC(=O)O)NC(=O)[C@H](C)NC(=O)[C@H](Cc2c[nH]cn2)NC(=O)[C@@H](N)C(C)C)[C@@H](C)O)[C@@H](C)O)C(=O)NC(C)(CCCc2ccccc2)C(N)=O)cc1 (stereo partly shown) [compound 178] (H-VHAEGT[ξαMePhe(2,6-F2)]T[ξαMeS]D[ξαMeBip(2'-Et,4'-OMe)][ξαMe(hhPhe)]-NH2) | 00% | > 24 h | 43% | 4 h | 00% | > 24 h | 17.1 ± 0.11 pg/µg/h | 23.1 ± 0.16 pg/µg/h | 37.0 ± 0.29 pg/µg/h | 00% | > 24 h | – | 84% | – | 2 h
CCc1cc(OC)ccc1-c1ccc(CC(C)(NC(=O)C(C)(CC(=O)O)NC(=O)[C@H](CO)NC(=O)[C@@H](NC(=O)[C@H](Cc2ccccc2)NC(=O)[C@@H](NC(=O)CNC(=O)[C@H](CCC(=O)O)NC(=O)C2(C)CCCN2C(=O)[C@H](Cc2c[nH]cn2)NC(=O)[C@@H](N)C(C)C)[C@@H](C)O)[C@@H](C)O)C(=O)NC(C)(CCCc2ccccc2)C(N)=O)cc1 (stereo partly shown) [compound 188] (H-VH[ξαMeP]EGTFTS[ξαMeD][ξαMeBip(2'-Et,4'-OMe)][ξαMe(hhPhe)]-NH2) | 00% | > 24 h | 41% | 4 h | 00% | > 24 h | 12.9 ± 0.14 pg/µg/h | 15.8 ± 0.13 pg/µg/h | 29.9 ± 0.15 pg/µg/h | 00% | > 24 h | – | 80% | – | 2 h
